Like-named read-outs stand apart in the source and are kept apart here.
Experiments:
Type in all cases: biochemical
[1] = system: OATA W58L
[2] = system: OATA W58A
[3] = system: OATA W58L; remark: listed apart in the source
[4] = system: OATA W58L; details: pH 7
[5] = system: OATA W58I; details: pH 7
[6] = system: OATA W58V; details: pH 7
[7] = system: OATA W58A; details: pH 7
[8] = system: OATA W58M; details: pH 7
[9] = system: OATA L57A/W58A
[10] = system: OATA L57A/W58A/V154A
[11] = system: OATA L57A/W58A; remark: listed apart in the source
[12] = system: OATA L57A/W58A/V154A; remark: listed apart in the source
[13] = system: OATA L57A
[14] = system: OATA L57C/W58L/I261A

## CC(C)(C)C(N)c1ccccc1 (stereo not drawn) [2,2-Dimethyl-1-phenylpropan-1-amine]
[1]
  Relative reactivity, OATA W58L: 2%
[2]
  Relative reactivity, OATA W58A: 3%

## 1-acetonaphthone [Ketone 1i]
[3]
  Conversion (%) OATAW58L: 75%
[4]
  Relative activity to acetophenone, OATA W58L: 47%

## CC(N)CCc1ccccc1 (stereo not drawn) [1-Methyl-3-phenylpropylamine]
[1]
  Relative reactivity, OATA W58L: 202%
[2]
  Relative reactivity, OATA W58A: 151%

## CC(=O)CO [hydroxyacetone]
[5]
  Relative activity to acetophenone, OATA W58I: 42%
[6]
  Relative activity to acetophenone, OATA W58V: 32%
[7]
  Relative activity to acetophenone, OATA W58A: 31%
[8]
  Relative activity to acetophenone, OATA W58M: 44%
[4]
  Relative activity to acetophenone, OATA W58L: 23%

## CCCC(C)=O [Ketone 1j, 2-pentanone]
[5]
  Relative activity to acetophenone, OATA W58I: 21%
[6]
  Relative activity to acetophenone, OATA W58V: 28%
[7]
  Relative activity to acetophenone, OATA W58A: 15%
[8]
  Relative activity to acetophenone, OATA W58M: 25%
[4]
  Relative activity to acetophenone, OATA W58L: 141%

## O=C(CO)c1ccccc1 [2-hydroxyacetophenone]
[5]
  Relative activity to acetophenone, OATA W58I: 73%
[6]
  Relative activity to acetophenone, OATA W58V: 70%
[7]
  Relative activity to acetophenone, OATA W58A: 61%
[8]
  Relative activity to acetophenone, OATA W58M: 65%

## C[C@H](N)C1CC1 [(S)-1-Cyclopropylethylamine]
[1]
  Relative reactivity, OATA W58L: 233%
[2]
  Relative reactivity, OATA W58A: 79%

## CCCCCC[C@H](C)N [(S)-2-aminooctane]
[1]
  Relative reactivity, OATA W58L: 255%
[2]
  Relative reactivity, OATA W58A: 99%

## C[C@H](N)c1cccc2ccccc12 [(S)-1-(1-naphthyl)ethylamine]
[1]
  Relative reactivity, OATA W58L: 2%
[9]
  Relative activity, OATA L57A/W58A: 18%
[10]
  Relative activity, OATA L57A/W58A/V154A: 60%
[2]
  Relative reactivity, OATA W58A: 0.7%

## Cc1ccc([C@H](C)N)cc1 [(S)-α,4-dimethylbenzylamine]
[1]
  Relative reactivity, OATA W58L: 78%
[2]
  Relative reactivity, OATA W58A: 45%

## CC(=O)CC(C)C [Ketone 1n, 4-methyl-2-pentanone]
[5]
  Relative activity to acetophenone, OATA W58I: 41%
[6]
  Relative activity to acetophenone, OATA W58V: 35%
[7]
  Relative activity to acetophenone, OATA W58A: 46%
[8]
  Relative activity to acetophenone, OATA W58M: 38%
[4]
  Relative activity to acetophenone, OATA W58L: 61%

## CC(N)c1ccc(F)cc1 (stereo not drawn) [4-Fluoro-α-methylbenzylamine]
[1]
  Relative reactivity, OATA W58L: 283%
[2]
  Relative reactivity, OATA W58A: 117%

## CC(=O)C(C)O (stereo not drawn) [3-hydroxy-2-butanone]
[5]
  Relative activity to acetophenone, OATA W58I: 23%
[6]
  Relative activity to acetophenone, OATA W58V: 29%
[7]
  Relative activity to acetophenone, OATA W58A: 20%
[8]
  Relative activity to acetophenone, OATA W58M: 32%

## COCC(C)=O [methoxyacetone]
[5]
  Relative activity to acetophenone, OATA W58I: 166%
[6]
  Relative activity to acetophenone, OATA W58V: 152%
[7]
  Relative activity to acetophenone, OATA W58A: 135%
[8]
  Relative activity to acetophenone, OATA W58M: 159%
[4]
  Relative activity to acetophenone, OATA W58L: 424%

## N[C@H]1CCc2ccccc21 [(S)-1-aminoindan]
[1]
  Relative reactivity, OATA W58L: 54%
[2]
  Relative reactivity, OATA W58A: 100%

## CCCC[C@H](C)N [(S)-2-aminohexane]
[1]
  Relative reactivity, OATA W58L: 306%
[2]
  Relative reactivity, OATA W58A: 116%

## CCC(C)=O [Ketone 2-butanone, 2-butanone]
[5]
  Relative activity to acetophenone, OATA W58I: 20%
[6]
  Relative activity to acetophenone, OATA W58V: 17%
[7]
  Relative activity to acetophenone, OATA W58A: 16%
[8]
  Relative activity to acetophenone, OATA W58M: 25%
[4]
  Relative activity to acetophenone, OATA W58L: 78%

## CCC(=O)C(=O)O [2-oxobutanoic acid]
[11]
  Relative activity, OATA L57A/W58A: 290%
  fold increase in reaction rate compared to OATA L57A: 8
[12]
  Relative activity, OATA L57A/W58A/V154A: 852%
  fold increase in reaction rate compared to OATA L57A: 25
[13]
  Relative activity, OATA L57A: 34%

## CC[C@H](N)c1ccccc1 [(S)-α-ethylbenzylamine]
[1]
  Relative reactivity, OATA W58L: 20%
[9]
  Relative activity, OATA L57A/W58A: 202%
[10]
  Relative activity, OATA L57A/W58A/V154A: 707%
[2]
  Relative reactivity, OATA W58A: 44%

## COc1ccc(C(C)=O)cc1 [Ketone 1e, 4-methoxyacetophenone]
[5]
  Relative activity to acetophenone, OATA W58I: 38%
[14]
  Relative activity, OATA L57C/W58L/I261A: 4,017%
[6]
  Relative activity to acetophenone, OATA W58V: 30%
[7]
  Relative activity to acetophenone, OATA W58A: 30%
[8]
  Relative activity to acetophenone, OATA W58M: 42%
[4]
  Relative activity to acetophenone, OATA W58L: 34%

## CC(=O)C(C)C [Ketone 1m, 3-methyl 2-butanone]
[5]
  Relative activity to acetophenone, OATA W58I: 26%
[6]
  Relative activity to acetophenone, OATA W58V: 29%
[7]
  Relative activity to acetophenone, OATA W58A: 21%
[8]
  Relative activity to acetophenone, OATA W58M: 29%
[4]
  Relative activity to acetophenone, OATA W58L: 78%
